# From article PMC5870887 (Bioorganic & medicinal chemistry letters, 2018)
# Target: recombinant α-synuclein fibrils (Homo sapiens, UniProt P37840)
# Assay: Thioflavin T competitive binding fluorescence assay
# Conditions: Thioflavin T assay Ki, mean ± SD, at least three experiments, NB = no binding was measurable (concentrations up to 10 μM)
row,Ki [µM],SMILES
1,0.192 ± 0.001,"COc1ccc2nc(/C=C/c3ccccc3)ccc2c1 [Compound 2, (E)-6-Methoxy-2-styrylquinoline]"
2,0.68 ± 0.139,"COc1ccc2ccc(/C=C/c3ccccc3)nc2c1 [Compound 3, (E)-7-methoxy-2-styrylquinoline]"
3,0.015 ± 0.003,"COc1cc(-c2nc(-c3ccc4cc(OCCF)ccc4n3)no2)ccn1 [Compound 28, 3-(6-(2-Fluoroethoxy)quinolin-2-yl)-5-(2-methoxypyridin-4-yl)-1,2,4-oxadiazole]"

# Same assay, conditions: mean ± SD, at least three experiments, NB = no binding was measurable (concentrations up to 10 μM)
row,Thioflavin T assay Ki,SMILES
1,no binding,"COc1cccc2nc(/C=C/c3ccccc3)ccc12 [Compound 1, (E)-5-Methoxy-2-styrylquinoline]"
2,no binding,"COc1cccc2ccc(/C=C/c3ccccc3)nc12 [Compound 4, (E)-8-Methoxy-2-styrylquinoline]"
3,no binding,"COc1ccc2nc(/C=C/c3ccnc(F)c3)ccc2c1 [Compound 11, (E)-2-(2-(2-Fluoropyridin-4-yl)vinyl)-6-methoxyquinoline]"
4,no binding,"COc1ccc2nc(/C=C/c3ccncc3Cl)ccc2c1 [Compound 15, (E)-2-(2-(3-Chloropyridin-4-yl)vinyl)-6-methoxyquinoline]"
5,moderate binding,"COc1ccc2nc(/C=C/c3ccncc3Br)ccc2c1 [Compound 16, (E)-2-(2-(3-Bromopyridin-4-yl)vinyl)-6-methoxyquinoline]"

# Same assay, conditions: read-out: Thioflavin T assay Ki, mean ± SD, at least three experiments, NB = no binding was measurable (concentrations up to 10 μM)
row,SMILES,Ki [µM]
1,"COc1cccc2nc(/C=C/c3ccccc3)ccc12 [Compound 1, (E)-5-Methoxy-2-styrylquinoline]",> 10
2,"COc1cccc2ccc(/C=C/c3ccccc3)nc12 [Compound 4, (E)-8-Methoxy-2-styrylquinoline]",> 10
3,"COc1cc(/C=C/c2ccncc2)nc2ccccc12 [Compound 6, (E)-4-Methoxy-2-(2-(pyridin-4-yl)vinyl)quinolone]",> 10
4,"COc1cccc2ccc(/C=C/c3ccncc3)nc12 [Compound 10, (E)-8-Methoxy-2-(2-(pyridin-4-yl)vinyl)quinolone]",> 10
5,"COc1ccc2nc(/C=C/c3ccnc(F)c3)ccc2c1 [Compound 11, (E)-2-(2-(2-Fluoropyridin-4-yl)vinyl)-6-methoxyquinoline]",> 10
6,"COc1ccc2nc(/C=C/c3ccncc3Cl)ccc2c1 [Compound 15, (E)-2-(2-(3-Chloropyridin-4-yl)vinyl)-6-methoxyquinoline]",> 10
7,"COc1cc(-c2nc(-c3ccc4cc(OC(C)C)ccc4n3)no2)ccn1 [Compound 30, 3-(6-Isopropoxyquinolin-2-yl)-5-(2-methoxypyridin-4-yl)-1,2,4-oxadiazole]",> 10
8,"COc1ccc2nc(-c3noc(-c4ccn5ccnc5c4)n3)ccc2c1 [Compound 31, 5-(Imidazo[1,2-a]pyridin-7-yl)-3-(6-methoxyquinolin-2-yl)-1,2,4-oxadiazole]",> 10
9,"CC(C)Oc1ccc2nc(-c3noc(-c4ccn5ccnc5c4)n3)ccc2c1 [Compound 32, 5-(Imidazo[1,2-a]pyridin-7-yl)-3-(6-isopropoxyquinolin-2-yl)-1,2,4-oxadiazole]",> 10
10,"FCCOc1ccc2nc(-c3noc(-c4ccn5ccnc5c4)n3)ccc2c1 [Compound 33, 3-(6-(2-Fluoroethoxy)quinolin-2-yl)-5-(imidazo[1,2-a]pyridin-7-yl)-1,2,4-oxadiazole]",> 10
11,"COCOc1ccc2nc(-c3noc(-c4ccn5ccnc5c4)n3)ccc2c1 [Compound 34, 5-(Imidazo[1,2-a]pyridin-7-yl)-3-(6-(methoxymethoxy)-quinolin-2-yl)-1,2,4-oxadiazole]",> 10

# The next lines start with the values.
row,Ki [µM],SMILES
1,> 10,"COc1cc2ccccc2nc1/C=C/c1ccncc1 [Compound 5, (E)-3-Methoxy-2-(2-(pyridin-4-yl)vinyl)quinolone]"
2,0.056 ± 0.04,"COc1cccc2nc(/C=C/c3ccncc3)ccc12 [Compound 7, (E)-5-Methoxy-2-(2-(pyridin-4-yl)vinyl)quinolone]"
3,0.052 ± 0.038,"COc1ccc2nc(/C=C/c3ccncc3)ccc2c1 [Compound 8, (E)-6-Methoxy-2-(2-(pyridin-4-yl)vinyl)quinolone]"
4,> 10,"COc1ccc2ccc(/C=C/c3ccncc3)nc2c1 [Compound 9, (E)-7-Methoxy-2-(2-(pyridin-4-yl)vinyl)quinolone]"
5,0.052 ± 0.021,"COc1ccc2nc(/C=C/c3ccnc(OC)c3)ccc2c1 [Compound 13, (E)-6-Methoxy-2-(2-(2-methoxypyridin-4-yl)vinyl)quinolone]"
6,0.018 ± 0.001,"COc1cc(/C=C/c2ccc3cc(OCCF)ccc3n2)ccn1 [Compound 14, (E)-6-(2-Fluoroethoxy)-2-(2-(2-methoxypyridin-4-yl)vinyl)quinolone]"
7,> 10,"COc1ccc2nc(-c3noc(-c4cccnc4)n3)ccc2c1 [Compound 26, 3-(6-Methoxyquinolin-2-yl)-5-(pyridin-3-yl)-1,2,4-oxadiazole]"
8,> 10,"COCOc1ccc2nc(-c3noc(-c4ccnc(OC)c4)n3)ccc2c1 [Compound 29, 3-(6-(Methoxymethoxy)quinolin-2-yl)-5-(2-methoxypyridin-4-yl)-1,2,4-oxadiazole]"
